ChEMBL document CHEMBL5034018, “LXR-Mediated Regulation of Marine-Derived Piericidins Aggravates High-Cholesterol Diet-Induced Cholesterol Metabolism Disorder in Mice” (J Med Chem, 2021)
Calls of active or inactive are those of the source. No cut-off for these calls is given here.

Columns and labels:
HepG2 [1] = test: Induction of apoptosis in human HepG2 cells assessed as live cells at 5 uM measured after 48 hrs by Annexin-V-FITC/propidium iodide staining based flow cytometry (reference value: 84.5 %); assay type: functional
HepG2 [2] = test: Induction of apoptosis in human HepG2 cells assessed as late apoptotic cells at 5 uM measured after 48 hrs by Annexin-V-FITC/propidium iodide staining based flow cytometry (reference value: 0 %); assay type: functional
HepG2 [3] = test: Down regulation of LXRalpha protein level in human HepG2 cells at 1 to 5 uM by Western blot analysis; assay type: functional, cell-based; conditions: dose 1-5 µM
[4] = Induction of SHP mRNA level in human HepG2 cells assessed as fold increase in SHP expression at 1 uM by RT-qPCR analysis; assay type: functional
HepG2 [5] = test: Induction of apoptosis in human HepG2 cells assessed as early apoptotic cells at 5 uM measured after 48 hrs by Annexin-V-FITC/propidium iodide staining based flow cytometry (reference value: 15.5 %); assay type: functional
[6] = Drug metabolism in mouse liver assessed as PA formation at 10 mg/kg, po after 30 mins by LC-MS/MS analysis; assay type: ADME, organism-based; conditions: in vivo, 0.5 h
Mus musculus [7] = test: Reversal of HCD-induced LXRalpha activation in C57BL/6 mouse assessed as decrease in LXRalpha protein level at 0.8 mg/kg, ip; assay type: functional; set-up: scale not given: the % may be the effect or the level left
[8] = Effect on bile acid homeostasis in HCD-fed C57BL/6 mouse assessed as inhibition of Cyp7a1 mRNA expression by RT-qPCR analysis; assay type: functional; set-up: scale not given: the % may be the effect or the level left
HepG2 [9] = test: Induction of calcium signal in human HepG2 cells at 5 uM by Fluo-4AM dye based fluorescence assay; assay type: functional, cell-based
[10] = Effect on bile acid homeostasis in HCD-fed C57BL/6 mouse assessed as decrease in FXR mRNA expression by RT-qPCR analysis; assay type: functional; set-up: scale not given: the % may be the effect or the level left
[11] = Toxicity in renal carcinoma xenografted C57BL/6 mouse assessed as change in IL-1beta level at 0.8 mg/kg, ip; assay type: organism-based; conditions: in vivo
HepG2 [12] = test: Effect on LXRalpha mRNA level in human HepG2 cells at 1 to 5 uM by RT-qPCR analysis; assay type: functional, cell-based; conditions: dose 1-5 µM
[13] = Effect on bile acid homeostasis in HCD-fed C57BL/6 mouse assessed as fold increase in Mrp3 mRNA expression by RT-qPCR analysis; assay type: functional
[14] = Effect on bile acid homeostasis in HCD-fed C57BL/6 mouse assessed as reversal of LXRbeta mRNA upregulation by RT-qPCR analysis; assay type: functional
Mus musculus [15] = test: Induction of HCD-induced cholestasis in C57BL/6 mouse assessed as fold increase in plasma LDL-cholesterol level at 0.8 mg/kg, ip; assay type: functional
[16] = Drug metabolism in mouse liver assessed as PA formation at 10 mg/kg, po after 180 mins by LC-MS/MS analysis; assay type: ADME, organism-based; conditions: in vivo, 3 h
Mus musculus [17] = organism: Mus musculus; test: Effect on bile acid homeostasis in HCD-fed C57BL/6 mouse assessed as change in Ppar-alpha mRNA expression by RT-qPCR analysis; assay type: functional
[18] = Effect on bile acid homeostasis in HCD-fed C57BL/6 mouse assessed as reduction in Ntcp-mRNA expression by RT-qPCR analysis; assay type: functional; set-up: scale not given: the % may be the effect or the level left
[19] = Down regulation of Cyp7a1 mRNA expression level in human HepG2 cells at 1 uM by RT-qPCR analysis; assay type: functional
HepG2 [20] = test: Down regulation of ABCB1 protein level in human HepG2 cells at 1 to 5 uM by Western blot analysis; assay type: functional, cell-based; conditions: dose 1-5 µM
[21] = Hepatotoxicity in renal carcinoma xenografted C57BL/6 mouse assessed as fold increase in plasma ALT at 0.8 mg/kg, ip; assay type: toxicity, organism-based; conditions: in vivo
[22] = Induction of Cholesterol accumulation in human HepG2 cells assessed as fold increase in LDL-cholesterol level at 5 uM after 48 hrs; assay type: functional
[23] = Toxicity in renal carcinoma xenografted C57BL/6 mouse kidney assessed as change in BUN level at 0.8 mg/kg, ip; assay type: organism-based; conditions: in vivo
[24] = Effect on bile acid homeostasis in HCD-fed C57BL/6 mouse assessed as down regulation of Ost-alpha mRNA expression by RT-qPCR analysis; assay type: functional
[25] = Induction of LDLR mRNA level in human HepG2 cells assessed as fold increase in LDLR expression at 1 uM by RT-qPCR analysis; assay type: functional
[26] = Induction of LDLR protein expression level in HCD-fed C57BL/6 mouse at 0.8 mg/kg, ip; assay type: functional
[27] = Toxicity in renal carcinoma xenografted C57BL/6 mouse assessed as change in IL-6 level at 0.8 mg/kg, ip; assay type: organism-based; conditions: in vivo
[28] = Induction of FXR mRNA level in human HepG2 cells assessed as fold increase in FXR expression at 1 uM by RT-qPCR analysis; assay type: functional
[29] = Hepatotoxicity in renal carcinoma xenografted C57BL/6 mouse assessed as fold increase in plasma AST at 0.8 mg/kg, ip; assay type: toxicity, organism-based; conditions: in vivo
[30] = Toxicity in renal carcinoma xenografted C57BL/6 mouse assessed as effect on visceral coefficient of spleen at 0.8 mg/kg, ip; assay type: organism-based; conditions: in vivo
HepG2 [31] = test: Induction of mitochondrial dysfunction in human HepG2 cells assessed as decrease in ILbeta level at 5 to 10 uM after 48 hrs; assay type: cell-based; set-up: scale not given: the % may be the effect or the level left; conditions: hepg2, 48 h, dose 5-10 µM
[32] = Induction of LDLR protein expression level in chow diet fed C57BL/6 mouse at 0.8 mg/kg, ip; assay type: functional
[33] = Down regulation of FXR mRNA level in human HepG2 cells at 1 uM by RT-qPCR analysis; assay type: functional
[34] = Down regulation of FXR mRNA level in human HepG2 cells at 5 uM by RT-qPCR analysis; assay type: functional
HepG2 [35] = test: Induction of mitochondrial dysfunction in human HepG2 cells assessed as decrease in TNFalpha level at 1 uM after 48 hrs; assay type: cell-based; set-up: scale not given: the % may be the effect or the level left; conditions: hepg2, 48 h
[36] = Down regulation of SHP mRNA level in human HepG2 cells at 1 uM by RT-qPCR analysis; assay type: functional
[37] = biological target: T1, Oxysterols receptor LXR-alpha (Homo sapiens, UniProt Q13133); test: Binding affinity to full-length human LXRalpha by surface plasmon resonance assay
T1 sequence (Q13133 whole entry): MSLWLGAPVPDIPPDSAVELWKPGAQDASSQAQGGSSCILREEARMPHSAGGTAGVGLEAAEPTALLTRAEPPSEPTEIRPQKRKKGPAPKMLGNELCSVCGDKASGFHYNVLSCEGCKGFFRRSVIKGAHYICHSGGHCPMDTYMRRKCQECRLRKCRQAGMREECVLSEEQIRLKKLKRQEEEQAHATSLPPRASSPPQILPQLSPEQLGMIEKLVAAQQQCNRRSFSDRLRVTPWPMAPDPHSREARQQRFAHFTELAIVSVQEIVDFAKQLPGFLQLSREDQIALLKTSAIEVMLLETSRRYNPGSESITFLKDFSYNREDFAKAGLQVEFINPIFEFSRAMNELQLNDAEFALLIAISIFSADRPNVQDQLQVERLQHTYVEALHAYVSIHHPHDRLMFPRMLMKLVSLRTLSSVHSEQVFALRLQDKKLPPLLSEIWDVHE

SMILES: C/C=C(\C)[C@H](O[C@@H]1O[C@H](CO)[C@@H](O)[C@H](O)[C@H]1O)[C@H](C)/C=C(C)/C=C/C/C(C)=C/Cc1nc(OC)c(OC)c(O)c1C
- Activity (HepG2 [1]): 64.3%
- Activity (HepG2 [2]): 0%
- Activity (HepG2 [3]): Active
- fold change (FC) [4]: 3.6
- Activity (HepG2 [5]): 35.7%
- Drug metabolism [6]: 14.87 ng/mL
- Activity (Mus musculus [7]): 46%
- Activity [8]: 14%
- Activity (HepG2 [9]): Active
- Activity [10]: 60%
- Activity [11]: Non-Toxic
- Activity (HepG2 [12]): inactive
- fold change (FC) [13]: 1.65
- Activity [14]: 72%
- fold change (FC) (Mus musculus [15]): 2.3
- Drug metabolism [16]: Metabolite_Detected
- Activity (Mus musculus [17]): inactive
- Activity [18]: 42%
- Activity [19]: 51%
- Activity (HepG2 [20]): Active
- fold change (FC) [21]: 2.3
- fold change (FC) [22]: 3.1
- Activity [23]: Non-Toxic
- Activity [24]: 44%
- fold change (FC) [25]: 2.5
- fold change (FC) [26]: 1.6
- Activity [27]: Non-Toxic
- fold change (FC) [28]: 3.6
- fold change (FC) [29]: 2.2
- Activity [30]: Non-Toxic
- Activity (HepG2 [31]): 68%
- fold change (FC) [32]: 1.5

SMILES: C/C=C(\C)[C@H](O)[C@H](C)/C=C(C)/C=C/C/C(C)=C/Cc1nc(OC)c(OC)c(O)c1C [PIERICIDIN A]
- Activity (HepG2 [1]): 75.4%
- Activity [33]: 56%
- Activity [34]: 34%
- Activity (HepG2 [2]): 0%
- Activity (HepG2 [35]): 54%
- Activity (HepG2 [5]): 24.6%
- Activity (Mus musculus [7]): 72%
- Activity [8]: 14%
- Activity (HepG2 [9]): Active
- Activity [36]: 55%
- Activity [10]: 58%
- Activity [11]: Non-Toxic
- Activity [14]: 72%
- fold change (FC) (Mus musculus [15]): 2.6
- Activity (Mus musculus [17]): inactive
- Kd [37]: 3.24 µM
- Activity [18]: 60%
- Activity [19]: 27%
- fold change (FC) [21]: 2.6
- fold change (FC) [22]: 2.7
- Activity [23]: Non-Toxic
- Activity [24]: 10%
- fold change (FC) [25]: 2.7
- Activity [27]: Non-Toxic
- fold change (FC) [29]: 1.6
- Activity [30]: Non-Toxic
